Assay results published in PubChem BioAssay AID330 (DTP/NCI, 2004).
Where “and” joins values, the source holds several entries; their conditions need not be identical. Equal values may be shown once. Toxic doses and inconclusive results are not listed. The calls were made as follows: active = survival T/C of 150% or more; inactive = T/C below 125% in these data.

Test system: P388 leukemia ip, CD2F1 mice, survival T/C
Test: NCI In Vivo Anticancer Drug Screen. Data for tumor model P388 Leukemia (intraperitoneal) in CD2F1 (CDF1) mice
Settings: endpoint: median survival time, higher = longer survival
In short: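 Mice carrying the transplanted tumor received test compound or vehicle. Survival was recorded in each group, and the value is the treated-group measurement divided by that of the vehicle-treated control group.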

[1] = dose: 50.0 mg/kg/injection, schedule: Q01DX005 (ip), vehicle: saline with Tween-80
[2] = dose: 100.0 mg/kg/injection, schedule: Q01DX005 (ip), vehicle: saline with Tween-80
[3] = dose: 200.0 mg/kg/injection, schedule: Q01DX005 (ip), vehicle: saline with Tween-80
[4] = dose: 50.0 mg/kg/injection, schedule: Q01DX009 (ip), vehicle: Klucel (hydroxypropylcellulose) (HPC)
[5] = dose: 100.0 mg/kg/injection, schedule: Q01DX009 (ip), vehicle: Klucel (hydroxypropylcellulose) (HPC)
[6] = dose: 200.0 mg/kg/injection, schedule: Q01DX009 (ip), vehicle: Klucel (hydroxypropylcellulose) (HPC)

Measured: T/C

CCOc1ccc(-n2c(=O)c(N=Nc3ccccc3OC)c(O)n(-c3ccccc3Cl)c2=S)cc1
inactive: dose: 100.0 mg/kg/injection, schedule: Q01DX001 (ip), vehicle: Klucel (hydroxypropylcellulose) (HPC) 102 % of control | dose: 200.0 mg/kg/injection, schedule: Q01DX001 (ip), vehicle: Klucel (hydroxypropylcellulose) (HPC) 101 % of control | dose: 400.0 mg/kg/injection, schedule: Q01DX001 (ip), vehicle: Klucel (hydroxypropylcellulose) (HPC) 105 % of control

CCOC(=O)C(O)(CC)CCC(C)C (stereo not given)
inactive: dose: 50.0 mg/kg/injection, schedule: Q04DX003 (ip), vehicle: saline with Tween-80 100 % of control | dose: 100.0 mg/kg/injection, schedule: Q04DX003 (ip), vehicle: saline with Tween-80 100 % of control | dose: 200.0 mg/kg/injection, schedule: Q04DX003 (ip), vehicle: saline with Tween-80 100 % of control

CC1=CC[C@@H]2C(C#N)C3(CCC12C)OCCO3 (stereo not given in full)
inactive: [1] 92 % of control | [2] 94 % of control | [3] 94 % of control

N/C(Cc1noc2ccc(F)cc12)=N\O
inactive: dose: 50.0 mg/kg/injection, schedule: Q01DX009 (ip), vehicle: saline 107 % of control | dose: 100.0 mg/kg/injection, schedule: Q01DX009 (ip), vehicle: saline 107 % of control

CSC(=S)n1nc(C)c(N=Nc2cccc(Cl)c2Cl)c1C
inactive: [1] 88 % of control | [2] 88 % of control | [3] 89 % of control

O=c1[nH]c(C(Br)(Br)Br)nc2ccccc12
inactive: dose: 12.5 mg/kg/injection, schedule: Q01DX009 (ip), vehicle: Klucel (hydroxypropylcellulose) (HPC) 99 % of control | dose: 25.0 mg/kg/injection, schedule: Q01DX009 (ip), vehicle: Klucel (hydroxypropylcellulose) (HPC) 112 % of control | [4] 113 % of control | [5] 117 % of control

CCCCCCCCCCC[N+]1(CC)CCCCC1
inactive: dose: 0.78 mg/kg/injection, schedule: Q01DX009 (ip), vehicle: saline 112 % of control and 93 % of control | dose: 1.56 mg/kg/injection, schedule: Q01DX009 (ip), vehicle: saline 100 % of control and 102 % of control | dose: 3.12 mg/kg/injection, schedule: Q01DX009 (ip), vehicle: saline 112 % of control and 97 % of control | dose: 6.25 mg/kg/injection, schedule: Q01DX009 (ip), vehicle: saline 124 % of control

CCOC(=O)CC(=O)c1sc(Nc2ccccc2)c(C#N)c1N
inactive: [1] 98 % of control | [2] 90 % of control | [3] 90 % of control

Cc1cc(C)c(O)c(CS(=O)(=O)Cc2cc(C)cc(C)c2O)c1
inactive: dose: 100.0 mg/kg/injection, schedule: Q04DX002 (ip), vehicle: saline 101 % of control | dose: 200.0 mg/kg/injection, schedule: Q04DX002 (ip), vehicle: saline 97 % of control | dose: 400.0 mg/kg/injection, schedule: Q04DX002 (ip), vehicle: saline 91 % of control

C=C1CC2(CC3C4CC3CC2C4)OC1=O (stereo not given)
inactive: dose: 100.0 mg/kg/injection, schedule: Q01DX001 (ip), vehicle: saline 98 % of control | dose: 200.0 mg/kg/injection, schedule: Q01DX001 (ip), vehicle: saline 99 % of control | dose: 400.0 mg/kg/injection, schedule: Q01DX001 (ip), vehicle: saline 100 % of control

C=C(COCNc1ccc(Cl)cc1Cl)C(=O)O
inactive: [4] 105 % of control | [5] 89 % of control | [6] 99 % of control

Fc1ccc(NC(=S)Nc2ccccc2C(F)(F)F)cc1
inactive: [4] 92 % of control | [5] 92 % of control | [6] 100 % of control

N#CC(NCc1ccccc1)c1ccccc1 (stereo not given)
inactive: dose: 60.0 mg/kg/injection, schedule: Q01DX005 (ip), vehicle: saline with Tween-80 99 % of control | dose: 120.0 mg/kg/injection, schedule: Q01DX005 (ip), vehicle: saline with Tween-80 100 % of control

CC1(C)NN=C(SCc2ccccc2)NC1=O
inactive: dose: 100.0 mg/kg/injection, schedule: Q04DX003 (ip), vehicle: Klucel (hydroxypropylcellulose) (HPC) 98 % of control | dose: 200.0 mg/kg/injection, schedule: Q04DX003 (ip), vehicle: Klucel (hydroxypropylcellulose) (HPC) 100 % of control | dose: 400.0 mg/kg/injection, schedule: Q04DX003 (ip), vehicle: Klucel (hydroxypropylcellulose) (HPC) 92 % of control

CCOC1N=C(c2ccccc2)c2cc(Cl)ccc2NC1=O (stereo not given)
inactive: [4] 101 % of control | [5] 95 % of control | [6] 93 % of control
